Data reported in PMC7672472 (2020).
Where two headings read alike, the source gives them in different places.

Legend:
[1] = tested on: MA-46 (MA) (DNA, aptamer) CTTACGACTCAGGCATTTTGCCGGGTAACGAAGTTACTGTCGTAAG; assay: ITC; details: 20 mM Na+, 5 mM Mg2+
[2] = tested on: MMC1 (DNA, aptamer) CTTACGACCAGGGTTGGTTTCATCGGTGGTGTAATATGGTCGTAAG; assay: ITC; details: 20 mM Na+, 0.5 mM Mg2+
[3] = tested on: MA-Mutant (DNA, aptamer) CTTACGACGCAGGCATTTTGCCGGGTAACGAAGTTACTGTCGTAAG; assay: ITC; details: 20 mM Na+, 5 mM Mg2+
[4] = tested on: SCA2.1 (DNA, aptamer) CTTACGACCTTAAGTGGGGTTCGGGTGGAGTTTATGGGGTCGTAAG; details: 20 mM Na+, 0.5 mM Mg2+; 10 mM Tris-HCl pH 7.4, 25 °C; 50 μM ligand
[5] = tested on: MA-41 (DNA, aptamer) GACTCAGGCATTTTGCCGGGTAACGAAGTTACTGTCGTAAG; assay: ITC; details: 20 mM Na+, 5 mM Mg2+; 10 mM Tris-HCl pH 7.4, 23 °C; one-site model
[6] = tested on: Dopamine Aptamer (DNA, aptamer) CGACGCCAGTTTGAAGGTTCGTTCGCAGGTGTGGAGTGACGTCG; details: 140 mM Na+, 4 mM K+, 2 mM Mg2+; 10 mM phosphate pH 7.4, 25 °C; 200 μM ligand
[7] = tested on: SCA2.1 (DNA, aptamer) CTTACGACCTTAAGTGGGGTTCGGGTGGAGTTTATGGGGTCGTAAG; assay: ITC; details: 20 mM Na+, 0.5 mM Mg2+; 10 mM Tris-HCl pH 7.4, 23 °C; one-site model
[8] = tested on: ATP-33 (DNA, aptamer) CGCACCTGGGGGAGTATTGCGGAGGAAGGTGCG; assay: T5 Exo digestion, PAGE; details: 10 mM Mg2+; 10 mM Tris-HCl pH 7.4, 25 °C; 250 μM ligand
[9] = tested on: ATP-28 (DNA, aptamer) CTGGGGGAGTATTGCGGAGGAAGGTGCG; assay: ITC; details: 10 mM Mg2+; 10 mM Tris-HCl pH 7.4, 23 °C; sequential model, site 1 of 2
[10] = tested on: Dopamine Aptamer (DNA, aptamer) CGACGCCAGTTTGAAGGTTCGTTCGCAGGTGTGGAGTGACGTCG; assay: T5 Exo/Exo I digestion, SYBR Gold fluorescence; details: 140 mM Na+, 4 mM K+, 2 mM Mg2+; 10 mM phosphate pH 7.4, 25 °C; 200 μM ligand
[11] = tested on: MMC3 (DNA, aptamer) CTTACGGCCAGGGTTGGTCTCATCGGTGGTGTAATATGGTCGTAAG; assay: continuous-injection ITC and exonuclease assay; details: 20 mM Na+, 0.5 mM Mg2+
[12] = tested on: MMC2 (DNA, aptamer) CTTACGACCAGGGTTGGTCTCATCGGTGGTGTAATATGGTCGTAAG; assay: continuous-injection ITC and exonuclease assay; details: 20 mM Na+, 0.5 mM Mg2+
[13] = tested on: MMC1-42 (DNA, aptamer) CGACCAGGGTTGGTTTCATCGGTGGTGTAATATGGTCGTAAG; assay: ITC; details: 20 mM Na+, 0.5 mM Mg2+; 10 mM Tris-HCl pH 7.4, 23 °C; one-site fit, half racemate concentration stated for MMC1 titrations
[14] = tested on: MMC5 (DNA, aptamer) CTTACCGACTATATGGGCAGTATCGTCTAGTGCCTAAGGGTCGTAAG; assay: continuous-injection ITC and exonuclease assay; details: 20 mM Na+, 0.5 mM Mg2+; 10 mM Tris-HCl pH 7.4, 23 °C; 1000 μM ligand in syringe; very weak or no binding
[15] = tested on: MMC1-Mutant (DNA, aptamer) CTTACGACCAGGGTTGGTTTCACCGGTGGTGTAATATGGTCGTAAG; assay: ITC; details: 20 mM Na+, 0.5 mM Mg2+; 10 mM Tris-HCl pH 7.4, 23 °C; 2000 μM ligand in syringe
[16] = tested on: MMC4 (DNA, aptamer) CTTACGAAGCAGGTGGGTAGGATAGTGTGTGTGCTGTCGTCGTAAG; assay: continuous-injection ITC and exonuclease assay; details: 20 mM Na+, 0.5 mM Mg2+
[17] = 10 mM Tris-HCl pH 7.4, 23 °C, one-site model
[18] = 10 mM Tris-HCl pH 7.4, 23 °C, 1000 μM ligand in syringe

A Kd [1, 17] of 61 ± 2 µM and a Kd [2] of 254 ± 22 µM were found for `CCNC(C)C(=O)c1ccc2c(c1)OCO2` (racemic) in this work.

`CCCC(C(=O)c1ccc2c(c1)OCO2)N1CCCC1` (racemic) was tested, and the binding [3] was “no”, the Kd [1, 17] was 18.8 ± 1.4 µM and the binding [4] was “yes”. For the same compound, the Kd [5] was 24.8 ± 0.7 µM.

With `CNC(C)Cc1ccc2c(c1)OCO2` (stereo not drawn) the Kd [1, 17] was 103 ± 4 µM, the binding [6] was “no” and the Kd [7] was 24.5 ± 0.9 µM.

For `Nc1nc2c(ncn2[C@@H]2O[C@H](COP(=O)(O)OP(=O)(O)OP(=O)(O)O)[C@@H](O)[C@H]2O)c(=O)[nH]1`, the binding [8] was “no”.

`Nc1ncnc2c1ncn2[C@@H]1O[C@H](COP(=O)(O)OP(=O)(O)OP(=O)(O)O)[C@@H](O)[C@H]1O` was tested, and the Kd1 [9] was 4.1 ± 0.2 µM and the binding [8] was “yes”.

A Kd [7] of 64 ± 3 µM was found for `CN[C@@H](C)[C@H](O)c1ccccc1` in this work.

A Kd [2] of 275 ± 17 µM was found for `CNC(C)C(=O)c1ccc2c(c1)OCO2` (racemic) in this work.

A Kd [1, 18] of over 1000 µM was found for `CCN(CC)CC(=O)Nc1c(C)cccc1C` in this work.

With `N[C@@H](Cc1ccc(O)cc1)C(=O)O` the binding [10] was “no”.

A Kd [1, 17] of 55 ± 2 µM was found for `NCCc1c[nH]c2ccc(O)cc12` in this work.

A Kd [1, 17] of 0.6 ± 0.1 µM was found for `CN(C)CCCN1c2ccccc2Sc2ccc(Cl)cc21` in this work.

With `NCCc1ccc(O)c(O)c1` the binding [10] was “yes” and the Kd [2, 18] was over 1000 µM.

In the case of `COC(=O)[C@H]1[C@@H](OC(=O)c2ccccc2)C[C@@H]2CC[C@H]1N2C`, the binding [4] is reported as “no”.

A Kd [2] of 654 ± 61 µM was found for `CNC(C)C(=O)c1ccccc1` (racemic) in this work.

A Kd [2] of over 1000 µM was found for `CNC(C)C(=O)c1ccc(F)cc1` (racemic) in this work.

`Nc1ccn([C@@H]2O[C@H](COP(=O)(O)OP(=O)(O)OP(=O)(O)O)[C@@H](O)[C@H]2O)c(=O)n1` was tested, and the binding [8] was “no”.

A Kd ([2]; 10 mM Tris-HCl pH 7.4, 23 °C, 10-fold lower affinity than mephedrone, half racemate concentration) of 146 ± 34 µM was found for `CNC(C)C(=O)c1ccc(OC)cc1` (racemic) in this work.

For `CN[C@@H](C)Cc1ccccc1`, the Kd [1] was over 1000 µM and the binding [4] was “no”.

In the case of `CNC(C)C(=O)c1ccc(C)cc1` (racemic), the binding [11] is reported as “yes”, the binding [12] is reported as “yes” and the Kd ([2]; 10 mM Tris-HCl pH 7.4, 23 °C, one-site fit with half the racemate concentration) is reported as 15 ± 1.3 µM. For the same compound, the Kd [13] was 6.6 ± 0.7 µM, the binding [14] was “no” and the binding [15] was “no”. The binding [16] was “yes”.

A Kd [2] of over 1000 µM was found for `CNC(C)C(=O)c1cccc(C)c1` (racemic) in this work.

`O=c1ccn([C@@H]2O[C@H](COP(=O)(O)OP(=O)(O)OP(=O)(O)O)[C@@H](O)[C@H]2O)c(=O)[nH]1` was tested, and the binding [8] was “no”.
